The source of these data is patent US9625448B2, “Double caged GABA compounds, bis-CNB-GABA” (The Trustees of Princeton University, priority 2014, dated 2017).

Several values for one entry are separate records, joined by “and”; a condition that tells them apart may be missing. Identical values can stand only once. Like-named read-outs stand apart in the source and are kept apart here.

Data set [1] concerns GABAA receptors. In words: Spontaneous IPSC / miniature GABA current amplitude, whole-cell patch recording from cerebellar molecular layer interneurons. Format: cell-based. On the procedure: Bis-CNB-GABA was applied in vitro. Currents were recorded from cerebellar interneurons. […] FIG. 35 (right) illustrates response traces before and after application of bis-CNB-GABA. FIG. 35 (left) illustrates summary of data. FIG. 36 illustrates effects of 1 mM bis-CNB-GABA on spontaneously evoked miniature glutamate and miniature GABA currents in cerebellar interneuron.
The biological properties of our synthetic bis-CNB-GABA were evaluated using whole-cell patch recording from cerebellar molecular layer interneurons.
FIGS. 43A-43E illustrate quantification of unwanted effects of caged GABA. Referring to FIGS. 43A-43E, first, changes in whole-cell holding current under voltage clamp were monitored while caged GABA compounds were applied by bath application or by local perfusion as per Civillico, E. F.; Shoham, S.; O'Connor, D. H.; Sarkisov, D. V.; Wang, S. S.-H. Cold Spring Harb. Protoc. 2012, which is incorporated herein by reference as if fully set forth). FIG. 43A illustrates voltage-clamp recordings from cerebellar interneurons exposed to caged GABA. Referring to this figure, upper trace corresponds to 1 mM bis-CNB-GABA; middle trace corresponds to 0.1 mM mono-O-CNB-GABA; bottom trace corresponds to 1 mM DPNI-GABA. Referring to FIG. 43A, (right) expanded traces illustrating the detailed effects on steady-state holding current and fluctuations in holding current were observed. FIG. 43B illustrates effects of caged GABA on spontaneous IPSCs and excitatory postsynaptic currents (EPSCs). Referring to FIG. 43B, IPSCs and EPSCs were identified and separated based on kinetic criteria. FIG. 43B (left) illustrates box plots of spontaneous postsynaptic current amplitudes in control conditions and in the presence of 1 mM bis-CNB-GABA. Referring to FIG. 43B (left), boxes show interquartile range and whiskers show full range of values. FIG. 43B (right) illustrates individual traces (gray) and average (block) of detected spontaneous IPSCs and EPSCs. FIG. 43C illustrates dependence of spontaneous IPSC amplitude on bis-CNB-GABA concentration. […] FIG. 43D illustrates comparison of effects of mono-O-CNB-GABA (0.1 mM) and bis-CNB-GABA (1.0 mM, except for 0.4 mM for IPSCs) on spontaneous IPSC amplitude, standard deviation of holding current (noise), and holding current (Ihold). FIG. 43E illustrates spontaneous EPSC size was unaffected by bis-CNB-GABA at all concentrations tested. Referring to FIGS. 43A and 43D, under these conditions, mono-O-CNB-GABA (0.1 mM) led to increases of 66±47 pA (mean±SD, n=6) in inward holding current at −60 mV (Ihold). This inward current presumably arises either via indirectly evoked increases in excitation or from direct activation of GABAA receptors (by residual free GABA in the caged compound solution or by mono-O-CNB-GABA, which may itself have partial agonist activity). See Dellal., S. S.; Luo, R.; Otis, T. S. J. Neurophysiol., 2012, 107, 2958-2970, which is incorporated herein by reference as if fully set forth.
Referring to FIG. 43B, the effects of bis-CNB-GABA on spontaneous IPSCs was next measured. […] Referring to FIG. 43B, in contrast, addition of bis-CNB-GABA served to reduce GABA current amplitudes by approximately one-third (FIG. 43B, top; 0.4 to 2.0 mM; ratio of amplitudes during drug/control: 0.68±0.17, n=14). […] This IC50 is, in fact, a lower bound; the material tested was crude product, which may contain minute amounts of mono-CNB-GABA.

A short description of data set [2]: physchem. It counts as physicochemical. Conditions: for rate of spontaneous photoproduct / GABA production: aqueous buffer, 23° C., 12 mM, pH 7.4, fluorescent room lights, first 8 days. On the procedure: The hydrolytic stability of bis-CNB-GABA under normal handling conditions was examined. Accordingly, we prepared samples of bis-CNB-GABA and mono-O-CNB-GABA were prepared in aqueous buffer (23° C., 12 mM, pH=7.4), stored the samples under fluorescent room lights, and determined accumulation of deprotected GABA at 1-day intervals.
FIGS. 44A-44B illustrate accumulation of GABA in ambient room light. FIG. 44A illustrates 1H NMR data used to quantify GABA accumulation. Top, bis-CNB-GABA before light exposure. Arrows denote methylene peaks of bis-CNB-GABA. Peaks at ˜3.45 ppm and ˜3.2 ppm in each spectrum correspond to dimethoxyethane, used as an internal standard. Bottom, The teal overlay indicates the post-photolysis spectrum of bis-CNB-GABA after 17 days of exposure to ambient fluorescent light. Arrows denote the two visible peaks corresponding to a combination of GABA and mono-N-CNB-GABA photoproducts. Note the lack of extraneous peaks in the 0-4 ppm range after light exposure. The dominant final photoproduct of bis-CNB-GABA was GABA, as identified using ^1H NMR. FIG. 44A illustrates 1H NMR data used to quantify GABA accumulation. Referring to this figure (top), bis-CNB-GABA before light exposure. Arrows denote methylene peaks of bis-CNB-GABA. Still referring to FIG. 44A, peaks at ˜3.45 ppm and ˜3.2 ppm in each spectrum correspond to dimethoxyethane, used as an internal standard. Still referring to FIG. 44A (bottom), the teal overlay indicates the post-photolysis spectrum of bis-CNB-GABA after 17 days of exposure to ambient fluorescent light. Arrows denote the two visible peaks corresponding to a combination of GABA and mono-N-CNB-GABA photoproducts. The lack of extraneous peaks in the 0-4 ppm range was observed after light exposure. The combined amount of mono-decaging (N-CNB-GABA) and double-decaging (GABA) photoproduct was quantified using the integrated multiplet at 2.15 ppm, with dimethoxyethane (singlet peaks at 3.20 and 3.45 ppm) as a standard.

For data set [3] the following is noted: cited from earlier work.
The subject of data set [4] is cerebellar interneurons. In words: Whole-cell holding current under voltage clamp in cerebellar interneurons exposed to caged GABA. It counts as cell-based. The source says:
FIGS. 43A-43E illustrate quantification of unwanted effects of caged GABA. Referring to FIGS. 43A-43E, first, changes in whole-cell holding current under voltage clamp were monitored while caged GABA compounds were applied by bath application or by local perfusion as per Civillico, E. F.; Shoham, S.; O'Connor, D. H.; Sarkisov, D. V.; Wang, S. S.-H. Cold Spring Harb. Protoc. 2012, which is incorporated herein by reference as if fully set forth). FIG. 43A illustrates voltage-clamp recordings from cerebellar interneurons exposed to caged GABA. Referring to this figure, upper trace corresponds to 1 mM bis-CNB-GABA; middle trace corresponds to 0.1 mM mono-O-CNB-GABA; bottom trace corresponds to 1 mM DPNI-GABA. Referring to FIG. 43A, (right) expanded traces illustrating the detailed effects on steady-state holding current and fluctuations in holding current were observed. FIG. 43B illustrates effects of caged GABA on spontaneous IPSCs and excitatory postsynaptic currents (EPSCs). Referring to FIG. 43B, IPSCs and EPSCs were identified and separated based on kinetic criteria. FIG. 43B (left) illustrates box plots of spontaneous postsynaptic current amplitudes in control conditions and in the presence of 1 mM bis-CNB-GABA. Referring to FIG. 43B (left), boxes show interquartile range and whiskers show full range of values. FIG. 43B (right) illustrates individual traces (gray) and average (block) of detected spontaneous IPSCs and EPSCs. FIG. 43C illustrates dependence of spontaneous IPSC amplitude on bis-CNB-GABA concentration. […]
Referring to FIG. 43D, in contrast, application of bis-CNB-GABA (raw product, 0.4 to 2.0 mM) evoked no detectable change in the holding current (ratio of holding current drug/control=1.0±0.3, n=14, p=0.7, Mann-Whitney test) or in its standard deviation, which is a measure of steady-state channel noise (from 3.0±0.5 to 3.2±0.8 pA, n=14, p=0.3) measured during periods of no spontaneous currents. […]

For data set [5] the following is noted: 1994, cited from earlier work.

As for `NCCCC(=O)OC(C(=O)O)c1ccccc1[N+](=O)[O-]` (stereo not shown) [mono-CNB-GABA], in data set [1] (1 mM), the “effect on rate of spontaneous IPSCs” value is “dramatic decrease”. Moreover, the “rate of spontaneous photoproduct / GABA production” value in data set [2] was determined as 1.0±0.2 %/day. In data set [2] (buffer, pH 7.4), the “extrapolated half-life t1/2” value is reported as 138 days. Also, the “known quantum yield (QY) of standard” value in data set [3] (from Invitrogen) is 0.16. Moreover, the quantum yield in data set [3] (literature values) is reported as 0.14. Besides, the “increase in inward holding current at −60 mV (Ihold)” value in data set [4] (0.1 mM, mean±SD, n=6) was 66±47 pA. For the same compound, in data set [5] (Gee et al.), the uncaging speed entry is “microsecond range”.
The half-life is the time in which the quantity being followed falls by half. In the case of `O=C(CCCNC(C(=O)O)c1ccccc1[N+](=O)[O-])OC(C(=O)O)c1ccccc1[N+](=O)[O-]` (stereo not shown) [bis-CNB-GABA, 2-((4-(Carboxy(2-nitrophenyl)methoxy)-4-oxobutyl)amino)-2-(2-nitrophenyl)acetic acid], the “concentration generating 33% reduction in response” value in data set [1] worked out at 1 mM. The “effects on holding current, IPSCs, or EPSCs” value in data set [1] (1 mM) is reported as “minimal or no effects”. Moreover, in data set [1] (1 mM, cerebellar interneuron), the “decrease in miniature GABA response amplitude / reduction of GABA currents” value is about 33%. Moreover, in data set [1] (0.4 to 2.0 mM, n=14), the “ratio of GABA current (spontaneous IPSC) amplitudes during drug/control” value is reported as 0.68±0.17. Besides, the Kd in data set [1] (FIG. 43C, read-out: KD of fit, dependence of spontaneous IPSC amplitude on concentration) is 2.5 ± 0.2 mM. Further, the IC50 in data set [1] (Table 1, calculated from q=[j]/[j]+IC50, read-out: IC50) is 2 mM; in data set [1] (Table 2, the data herein, read-out: IC50 in blocking synaptic GABAA currents), at least 2.5 mM; in data set [1] (read-out: estimated IC50 from concentration-dependence of the reduction of spontaneous IPSC amplitude, crude product, stated to be a lower bound), at least 2.5 mM. In addition, in data set [1] (Table 1, calculated, q=0.33), the IC33 was 1.0. For the same compound, the “10-90% rise time of IPSCs” value in data set [1] (during bis-CNB-GABA application, control 0.44±0.13 ms) came out at 0.44±0.11 ms. Moreover, in data set [1] (submillimolar concentrations), the “antagonist activity at submillimolar concentrations” value is “virtually no antagonist activity”. For the same compound, the “fold less antagonistic binding compared to CDNI-GABA” value in data set [1] (vs CDNI-GABA) is reported as 4 fold. The “fold less antagonism compared to DPNI-GABA” value in data set [1] (vs DPNI-GABA) was found to be 4 fold. In addition, in data set [1] (vs mono-CNB-GABA), the “fold lower affinity / reduction of antagonism compared to mono-caged analog” value is 70 fold and 100 fold. For the same compound, in data set [2], the “rate of spontaneous photoproduct / GABA production” value was determined as 1.5±0.1 %/day. In addition, the half-life at 12 mM in data set [2] (buffer, pH 7.4) is 98 days. The “accumulation of GABA” value in data set [2] (during a week in the light) was “less than 1%”. Also, in data set [2] (during a week in the light), the “estimated production of N-CNB-GABA” value is recorded as 10%. In data set [4] (0.4 to 2.0 mM, control 3.0±0.5 pA, n=14), the “standard deviation of holding current (steady-state channel noise)” value turned out to be 3.2±0.8 pA. For the same compound, in data set [4] (raw product, 0.4 to 2.0 mM, n=14), the “ratio of holding current drug/control” value is recorded as 1.0±0.3. The dark reaction time in data set [5] (N-position, Wieboldt et al.) is 1.5 ms.
